How the values were obtained:
[1] = Metabolic stability in rat liver microsomes assessed as intrinsic clearance; type: ADME, Microsome; settings: read-out: CLH
[2] = biological target: Voltage-gated inwardly rectifying potassium channel KCNH2 (Homo sapiens, UniProt Q12809); assay: Inhibition of human ERG expressed in CHO-K1 cells by automated Qpatch clamp assay
Autotaxin [3] = biological target: T1, Autotaxin (Homo sapiens, UniProt Q13822)
Description: Inhibition of human recombinant ATX expressed in HEK293 cells assessed as inhibition of choline release using LPC (18:1) as substrate preincubated with enzyme for 20 mins followed by substrate addition and measured every 2 mins for 40 mins by resurofin-based fluorescence analysis

[4] = Passive Permeability of the compound across artificial membrane assessed as fraction absorbed by PAMPA assay
[5] = Metabolic stability in human liver microsomes assessed as intrinsic clearance; type: ADME, Microsome; settings: read-out: CLH
[6] = Clearance in Sprague-Dawley rat at 1 mg/kg, iv; type: ADME, organism-based; settings: in vivo
[7] = AUC (0 to infinity) in Sprague-Dawley rat at 10 mg/kg, po; type: ADME, organism-based; set-up: route oral, time infinity, dose 10 mg/kg; settings: in vivo
[8] = Volume of distribution at steady state in Sprague-Dawley rat at 1 mg/kg, iv; type: ADME, organism-based; settings: in vivo, read-out: Vdss
Autotaxin [9] = biological target: T1, Autotaxin; assay: Inhibition of ATX in human serum assessed as reduction in LPA (18:1) level by LC-MS analysis; type: cell-free
[10] = Oral bioavailability in Sprague-Dawley rat at 10 mg/kg; type: ADME, organism-based; settings: in vivo
[11] = Half life in Sprague-Dawley rat at 1 mg/kg, iv; type: ADME, organism-based; settings: in vivo
[12] = Tmax in Sprague-Dawley rat at 10 mg/kg, po; type: ADME, organism-based; settings: in vivo
Rattus norvegicus = assay: (§1) In vivo inhibition of ATX in po dosed Sprague-Dawley rat assessed as inhibition of LPA formation in serum by LC-MS analysis; type: functional, organism-based
[13] = as §1; type: functional, organism-based
[14] = Cmax in Sprague-Dawley rat at 10 mg/kg, po; type: ADME, organism-based; set-up: route oral, dose 10 mg/kg; settings: in vivo
[15] = Equilibrium solubility of compound at pH 6.8; type: physicochemical; settings: buffer

Sequence of Voltage-gated inwardly rectifying potassium channel KCNH2 (Q12809 whole entry): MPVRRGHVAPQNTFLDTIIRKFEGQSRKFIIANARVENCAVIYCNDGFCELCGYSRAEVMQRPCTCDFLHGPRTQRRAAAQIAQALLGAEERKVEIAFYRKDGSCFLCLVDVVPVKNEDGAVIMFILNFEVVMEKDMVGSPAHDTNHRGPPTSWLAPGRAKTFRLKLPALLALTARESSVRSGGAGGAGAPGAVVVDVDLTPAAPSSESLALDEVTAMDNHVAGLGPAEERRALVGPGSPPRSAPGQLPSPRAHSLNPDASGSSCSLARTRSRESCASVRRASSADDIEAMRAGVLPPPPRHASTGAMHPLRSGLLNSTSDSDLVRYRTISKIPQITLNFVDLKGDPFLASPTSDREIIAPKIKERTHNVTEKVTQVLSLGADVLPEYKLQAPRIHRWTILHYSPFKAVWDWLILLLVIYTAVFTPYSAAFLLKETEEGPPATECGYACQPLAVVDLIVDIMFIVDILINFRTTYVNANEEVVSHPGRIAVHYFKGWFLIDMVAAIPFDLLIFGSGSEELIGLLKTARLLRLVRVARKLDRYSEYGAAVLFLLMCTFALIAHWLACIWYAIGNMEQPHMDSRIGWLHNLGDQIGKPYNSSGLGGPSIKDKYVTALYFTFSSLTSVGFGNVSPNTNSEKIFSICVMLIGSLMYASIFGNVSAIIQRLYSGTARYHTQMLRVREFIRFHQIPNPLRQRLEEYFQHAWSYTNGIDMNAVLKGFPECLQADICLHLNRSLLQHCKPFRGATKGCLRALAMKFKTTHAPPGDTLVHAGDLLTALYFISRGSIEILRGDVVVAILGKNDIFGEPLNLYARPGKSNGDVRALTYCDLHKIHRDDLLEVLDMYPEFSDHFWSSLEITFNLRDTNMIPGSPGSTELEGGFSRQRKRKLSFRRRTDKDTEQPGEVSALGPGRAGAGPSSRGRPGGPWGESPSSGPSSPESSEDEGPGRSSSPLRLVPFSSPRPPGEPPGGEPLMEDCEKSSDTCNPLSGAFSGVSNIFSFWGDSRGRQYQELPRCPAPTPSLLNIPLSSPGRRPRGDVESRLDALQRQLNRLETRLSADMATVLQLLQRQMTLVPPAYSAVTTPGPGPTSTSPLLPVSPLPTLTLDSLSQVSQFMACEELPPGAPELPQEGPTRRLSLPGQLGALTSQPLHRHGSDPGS

Structure (SMILES)	microsomal CLint [1]	IC50 [2]	IC50 (Autotaxin [3])	also measured
COc1ccc(CN2CCN(C(=O)/C=C/c3ccc(Cl)cc3Cn3nnc(C)n3)CC2)nc1	190 µL/min/mg	1900 nM		
Cc1nnn(Cc2cc(Cl)ccc2/C=C/C(=O)N2CCN(Cc3cnn(C)c3)CC2)n1	49 µL/min/mg	15000 nM		
Cc1nnn(Cc2cc(Cl)ccc2/C=C/C(=O)N2CCC(Cc3ncc(C)o3)CC2)n1	570 µL/min/mg			
Cc1nnn(Cc2cc(Cl)ccc2/C=C/C(=O)N2CCNC[C@H]2C)n1	84 µL/min/mg		95 nM	
Cc1nnn(Cc2cc(Cl)ccc2CCC(=O)N2CCN(Cc3ccc(F)cc3)C[C@H]2C)n1	> 920 µL/min/mg		19 nM	
Cc1noc(Cc2cc(Cl)ccc2/C=C/C(=O)N2CCN(Cc3ccc(F)cc3)C[C@H]2C)n1	580 µL/min/mg		18 nM	
Cc1nnn(Cc2cc(C(F)(F)F)ccc2/C=C/C(=O)N2CCC(C#N)CC2)n1	28 µL/min/mg	25000 nM	790 nM	Fa [4]: 27%
Cc1nnn(Cc2cc(Cl)ccc2/C=C/C(=O)N2CCN(C(=O)c3ccc(F)cc3)CC2)n1	71 µL/min/mg		1600 nM	
Cc1nnn(Cc2cc(Cl)ccc2/C=C/C(=O)N2CCN(Cc3ccc(F)cc3)CC2)n1	470 µL/min/mg		20 nM	
Cc1noc(C2CCN(C(=O)/C=C/c3ccc(C(F)(F)F)cc3Cn3nnc(C)n3)CC2)n1	36 µL/min/mg			
Cc1nnn(Cc2cc(C(F)(F)F)ccc2/C=C/C(=O)N2CCC(C(F)(F)F)CC2)n1	41 µL/min/mg		13 nM	
Cc1nnn(Cc2cc(C(F)(F)F)ccc2/C=C/C(=O)N2CCC(c3noc(C)n3)CC2)n1	35 µL/min/mg	> 30000 nM		microsomal CLint [5]: 19 µL/min/mg
Cc1cc(CN2CCN(C(=O)/C=C/c3ccc(Cl)cc3Cn3nnc(C)n3)CC2)on1	88 µL/min/mg	12000 nM		
Cc1nnn(Cc2cc(C(F)(F)F)ccc2/C=C/C(=O)N2CCC(c3nnc(C)o3)CC2)n1	19 µL/min/mg	23000 nM		clearance [6]: 15 mL/min/kg; AUC [7]: 23.2 µM·h; Vd [8]: 1.8 L/kg; IC50 (Autotaxin [9]): 12 nM; bioavailability [10]: 94%; half-life [11]: 3.6 h; Tmax [12]: 1.3 h; inhibition (Rattus norvegicus): Dose-dependent effect; IC50 [13]: 5 nM; Cmax [14]: 5.1 µM; microsomal CLint [5]: 13 µL/min/mg
Cc1cc(CN2CCN(C(=O)/C=C/c3ccc(Cl)cc3Cn3nnc(C)n3)CC2=O)on1	87 µL/min/mg		26 nM	
Cc1nnn(Cc2cc(Cl)ccc2/C=C/C(=O)N2CCN(Cc3ccc(F)cc3)C[C@H]2C)n1	510 µL/min/mg		9.6 nM	microsomal CLint [5]: 230 µL/min/mg
Cc1ncn(C2CCN(C(=O)/C=C/c3ccc(C(F)(F)F)cc3Cn3nnc(C)n3)CC2)n1	15 µL/min/mg	25000 nM	16 nM	microsomal CLint [5]: 16 µL/min/mg
COc1ccc(CN2CCN(C(=O)/C=C/c3ccc(Cl)cc3Cn3nnc(C)n3)CC2)cc1	520 µL/min/mg		9.2 nM	
C[C@@H]1CN(Cc2ccc(F)cc2)CCN1C(=O)/C=C/c1ccc(Cl)cc1Cn1ncnn1	730 µL/min/mg		16 nM	
Cc1cnn(Cc2cc(Cl)ccc2/C=C/C(=O)N2CCN(Cc3ccc(F)cc3)C[C@H]2C)n1	690 µL/min/mg		5.9 nM	
Cc1nnn(Cc2cc(Cl)ccc2/C=C/C(=O)N2CCN(Cc3coc(C)n3)CC2)n1	72 µL/min/mg	23000 nM		clearance [6]: 45 mL/min/kg; AUC [7]: 4.4 µM·h; Vd [8]: 1.6 L/kg; solubility thermodynamic [15]: > 1000 µM; bioavailability [10]: 52%; half-life [11]: 0.8 h; Tmax [12]: 0.4 h; Cmax [14]: 2.8 µM
Cc1nnn(Cc2cc(Cl)ccc2/C=C/C(=O)N2CCC(Cc3nnc(C)o3)CC2)n1	89 µL/min/mg	> 30000 nM		
Cc1nnn(Cc2cc(C(F)(F)F)ccc2/C=C/C(=O)N2CCC(Cl)CC2)n1	89 µL/min/mg	> 30000 nM	60 nM	Fa [4]: 89%

From ChEMBL document CHEMBL4673273, “Development of autotaxin inhibitors: A series of tetrazole cinnamides” (Bioorg Med Chem Lett, 2021)
